Results taken from ChEMBL document CHEMBL1614629, “Extrapolation of human pharmacokinetic parameters from rat, dog, and monkey data: Molecular properties associated with extrapolative success or failure” (J Pharm Sci, 2005).

How the values were obtained:
[1] = Volume of distribution at steady state in monkey after iv administration; format: ADME, organism-based; settings: macaca, in vivo, read-out: Vdss
[2] = Volume of distribution at steady state in rat after iv administration; format: ADME, organism-based; settings: in vivo
[3] = Clearance in rat after iv administration; format: ADME, organism-based; settings: in vivo
[4] = Clearance in monkey after iv administration; format: ADME, organism-based; settings: macaca, in vivo
[5] = Clearance in dog after iv administration; format: ADME, organism-based, Canis lupus familiaris; settings: in vivo
[6] = Volume of distribution at steady state in dog after iv administration; format: ADME, organism-based, Canis lupus familiaris; settings: in vivo, read-out: Vdss
[7] = Clearance in human after iv administration; format: ADME, organism-based; settings: in vivo
[8] = Volume of distribution at steady state in human after iv administration; format: ADME, organism-based; settings: in vivo; for Vd: read-out: Vdss

SMILES | Vd [1] [L/kg] | Vdss [2] [L/kg] | clearance [3] [mL/min/kg] | clearance [4] [mL/min/kg] | clearance [5] [mL/min/kg] | Vd [6] [L/kg] | clearance [7] [mL/min/kg] | Vd [8] [L/kg] | Vdss [8] [L/kg]
CCCCCNC(=O)c1coc([C@H]2[C@@H](Cc3ccccc3CCC(=O)O)[C@@H]3CC[C@H]2O3)n1 [IFETROBAN] | 5.5 | 2.8 | 88 | 19 | 65 | 11 | 6.4 | 4.4 | 
CC#CCC(C)[C@H](O)/C=C/[C@@H]1[C@H]2C/C(=C/CCCC(=O)O)C[C@H]2C[C@H]1O (stereo partly specified) [ILOPROST] | 0.9 | 0.8 | 32 | 58 | 67 | 0.9 | 17 | 0.4 | 
COc1ccc2c(c1)c(CC(=O)O)c(C)n2C(=O)c1ccc(Cl)cc1 [INDOMETHACIN] | 1.8 | 0.1 | 0.43 | 13 | 0.002 | 7.4 | 2 | 0.26 | 
O=[N+]([O-])O[C@H]1CO[C@H]2[C@@H]1OC[C@H]2O[N+](=O)[O-] [ISOSORBIDE DINITRATE] | 1.7 | 4.9 | 118 | 59 | 180 | 3 | 3.6 |  | 0.05
O=[N+]([O-])O[C@@H]1CO[C@H]2[C@@H]1OC[C@@H]2O [ISOSORBIDE MONONITRATE] | 0.5 | 0.97 | 2.5 | 11 | 6.9 | 0.8 | 1.7 | 0.6 | 
N[C@@H](Cc1ccc(O)c(O)c1)C(=O)O [LEVODOPA] | 0.47 | 9.8 | 109 | 17 | 19 | 0.4 | 23 | 1.7 | 
CCOC(=O)C1(c2ccccc2)CCN(C)CC1 [MEPERIDINE] | 5.9 | 24 | 253 | 1 | 43 | 2.4 | 17 | 4.4 | 
C[C@@H](O)[C@H]1C(=O)N2C(C(=O)O)=C(S[C@@H]3CN[C@H](C(=O)N(C)C)C3)[C@H](C)[C@H]12 [MEROPENEM] | 0.3 | 0.3 | 47 | 7 | 4 | 0.25 | 4 | 0.3 | 
CN(C)C(=O)CCSC(SCCC(=O)O)c1cccc(/C=C/c2ccc3ccc(Cl)cc3n2)c1 (stereo unspecified) [MK-571] | 0.32 | 0.59 | 37 | 1.9 | 4 | 0.23 | 0.92 | 0.09 | 
CO[C@@]1(NC(=O)C(C(=O)[O-])c2ccc(O)cc2)C(=O)N2C(C(=O)[O-])=C(CSc3nnnn3C)CO[C@@H]21.[Na+].[Na+] (stereo partly specified) [MOXALACTAM DISODIUM] | 0.16 | 0.28 | 9.4 | 2 | 2.2 | 0.2 | 1.2 | 0.27 | 
C#C[C@]1(O)CC[C@H]2[C@@H]3CCc4cc(O)ccc4[C@H]3[C@@H](OC)C[C@@]21C [MOXESTROL] | 1.8 | 1.4 | 52 | 3.2 | 5.2 | 0.63 | 0.34 | 0.24 | 
COCCOC(=O)C1=C(C)NC(C)=C(C(=O)OC(C)C)C1c1cccc([N+](=O)[O-])c1 (stereo unspecified) [NIMODIPINE] | 3.6 | 0.96 | 56 | 33 | 34 | 3.2 | 14 | 0.9 | 
O=C(O)C[C@H](NC(=O)CP(=O)(O)O)C(=O)O [PALA] | 0.35 | 4.5 | 53 | 3.7 | 7 | 0.6 | 0.8 | 0.35 | 
Cc1nc(=O)c(C#N)c(NCc2cccnc2)[nH]1 [PELRINONE] | 0.85 | 3.3 | 28 | 13 | 11 | 1.2 | 4 | 0.35 | 
c1ccc(C2(N3CCCCC3)CCCCC2)cc1 [PHENCYCLIDINE] | 7.3 | 23 | 122 | 37 | 50 | 17 | 4.9 | 6.2 | 
O=C1NC(=O)C(c2ccccc2)(c2ccccc2)N1 [PHENYTOIN] | 7.8 | 0.64 | 7.4 | 7.9 | 2.8 | 1 | 0.57 | 1.4 | 
CC1CCCC(C)N1CCCC(O)(c1ccccc1)c1ccccn1 (stereo unspecified) [PIRMENOL] | 1.4 | 12 | 23 | 5 | 6 | 3.3 | 2.5 | 1.3 | 
